Assays:
[1] = tested on: T47D cells; assay: Cell-based assay: anti-proliferative activity, Cell Counting Kit-8, 72 hours (T47D); conditions: Homo sapiens, T47D, 72 h
Procedure, shortened: (§1)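 First, lysates underwent western blotting with anti-MELK antibody to establish expression. Next, cells went into 96-well plates. Then candidate inhibitors were added. Finally, viability was determined by CCK-8 at 72 h and IC50 computed.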

[2] = tested on: HT-1197 cells; assay: Cell-based assay: anti-proliferative activity, Cell Counting Kit-8, 72 hours (HT-1197, negative control without MELK expression); conditions: Homo sapiens, HT1197, 72 h, 72 hours
Procedure, shortened: as §1

[3] = tested on: A549 cells; assay: Cell-based assay: anti-proliferative activity, Cell Counting Kit-8, 72 hours (A549); conditions: Homo sapiens, A549, 72 h, 72 hours
Procedure, shortened: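 A549 cells were seeded in 96-well plates and exposed to candidate inhibitors for 72 hours. Cell growth was then measured with Cell Counting Kit-8, and IC50 values were calculated from the resulting growth data.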

[4] = target: MELK (Homo sapiens, UniProt Q14680); assay: Kinase assay: MELK activity, phosphorylation of FITC-labeled histone H3 peptide measured by IMAP fluorescence polarization; type: biochemical; conditions: read-out: IC50 (μM) (kinase assay)
Procedure, shortened: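 Kinase reactions ran with or without test compound (final DMSO 1%) on a fluorescein-tagged H3 peptide. Progressive binding solution was added to terminate them. After a half-hour room-temperature incubation, polarization was measured.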

[5] = tested on: DU4475 cells; assay: Cell-based assay: anti-proliferative activity, Cell Counting Kit-8, 72 hours (DU4475); conditions: Homo sapiens, DU-4475, 72 h
[6] = tested on: DU4475 cells; assay: as above; conditions: Homo sapiens, DU-4475, 72 h; remark: listed apart in the source
[7] = HT1197 cells (negative control)
[8] = HT1197 cells (negative control, no MELK expression)

Sequence of MELK (Q14680 whole entry, looked up): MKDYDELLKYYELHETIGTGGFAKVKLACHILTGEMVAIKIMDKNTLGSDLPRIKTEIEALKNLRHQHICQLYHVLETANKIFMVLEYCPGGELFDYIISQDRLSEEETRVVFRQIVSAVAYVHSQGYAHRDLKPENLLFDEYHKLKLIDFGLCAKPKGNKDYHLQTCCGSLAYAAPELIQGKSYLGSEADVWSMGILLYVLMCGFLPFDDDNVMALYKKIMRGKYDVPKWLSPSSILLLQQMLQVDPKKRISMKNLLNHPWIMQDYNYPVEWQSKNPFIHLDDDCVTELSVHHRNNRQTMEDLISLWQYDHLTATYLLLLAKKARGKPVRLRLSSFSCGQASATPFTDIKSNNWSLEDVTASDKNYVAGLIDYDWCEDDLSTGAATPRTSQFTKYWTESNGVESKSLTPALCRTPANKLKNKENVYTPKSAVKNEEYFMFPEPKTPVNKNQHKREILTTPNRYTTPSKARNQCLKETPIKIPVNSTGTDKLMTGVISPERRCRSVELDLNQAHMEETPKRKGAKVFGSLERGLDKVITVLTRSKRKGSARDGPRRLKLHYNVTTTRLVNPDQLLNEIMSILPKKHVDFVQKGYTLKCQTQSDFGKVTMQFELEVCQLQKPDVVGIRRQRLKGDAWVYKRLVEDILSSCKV

Row | SMILES | IC50 [1] [µM] | IC50 [2, 7] [µM] | IC50 [3] [µM] | IC50 [4] [µM] | IC50 [5] [µM] | IC50 [6] [µM] | IC50 [2, 8] [µM]
1 | CN[C@H]1CC[C@H](Nc2c(C(=O)C3CC3)cnc3ccc(-c4cc(Cl)c(O)c(Cl)c4)cc23)CC1 [Example 510, Cyclopropyl{6-(3,5-dichloro-4-hydroxyphenyl)-4-[trans-4-(methylamino)cyclohexylamino]quinolin-3-yl}methanone] | 0.054 | 1 | 0.12 | 0.0019 | 0.018 | – | –
2 | CCCC(=O)c1cnc2ccc(-c3cc(F)c(O)c(Cl)c3)cc2c1N[C@H]1CC[C@H](N)CC1 [Example 532, 1-(4-((trans-4-aminocyclohexyl)amino)-6-(3-chloro-5-fluoro-4-hydroxyphenyl)quinolin-3-yl)butan-1-one] | 0.046 | 2.9 | 0.49 | 0.017 | 0.03 | – | –
3 | NC[C@H]1CC[C@@H](Nc2c(C(=O)C3CC3)cnc3ccc(-c4cc(F)c(O)c(Cl)c4)cc23)CC1 [Example 515, (4-((1s,4s)-4-(aminomethyl)cyclohexylamino)-6-(3-chloro-5-fluoro-4-hydroxyphenyl)quinolin-3-yl)(cyclopropyl)methanone] | 0.23 | 3.9 | 0.83 | 0.0034 | 0.12 | – | –
4 | CCCC(=O)c1cnc2ccc(-c3cc(Cl)c(O)c(Cl)c3)cc2c1Nc1ccc(CN(C)C)cc1 [Example 530, 1-(6-(3,5-dichloro-4-hydroxyphenyl)-4-((4-((dimethylamino)methyl)phenyl)amino)quinolin-3-yl)butan-1-one] | 0.07 | 1.2 | 0.15 | 0.0045 | 0.086 | – | –
5 | O=C(c1cnc2ccc(-c3cc(F)c(O)c(Cl)c3)cc2c1Nc1ccc(N2CCNCC2)cn1)C1CC1 [Example 525, (6-(3-chloro-5-fluoro-4-hydroxyphenyl)-4-(5-(piperazin-1-yl)pyridin-2-ylamino)quinolin-3-yl)(cyclopropyl)methanone] | 0.48 | 11 | 1.7 | 0.0048 | 0.46 | – | –
6 | CCCC(=O)c1cnc2ccc(-c3cc(Cl)c(O)c(OC)c3)cc2c1N[C@H]1CC[C@H](CN(C)C)CC1 [Example 607] | 0.24 | 3.4 | 0.48 | 0.0051 | 0.24 | – | –
7 | CN(C)C[C@H]1CC[C@@H](Nc2c(C(=O)C3CC3)cnc3ccc(-c4cc(Cl)c(O)c(Cl)c4)cc23)CC1 [Example 526, cyclopropyl(6-(3,5-dichloro-4-hydroxyphenyl)-4-((1s,4s)-4-((dimethylamino)methyl)cyclohexylamino)quinolin-3-yl)methanone] | 0.29 | 1.2 | 0.25 | 0.0021 | 0.15 | – | –
8 | CCCC(=O)c1cnc2ccc(-c3cc(Cl)c(O)c(OC)c3)cc2c1Nc1ccc(N2CCNCC2)nc1 [Example 617, 1-(6-(3-chloro-4-hydroxy-5-methoxyphenyl)-4-(6-(piperazin-1-yl)pyridin-3-ylamino)quinolin-3-yl)butan-1-one] | 0.33 | 1.7 | 0.19 | 0.0042 | 0.32 | – | –
9 | CCCC(=O)c1cnc2ccc(-c3cc(F)c(O)c(Cl)c3)cc2c1Nc1ccc(CN(C)C)cc1 [Example 537, 1-(6-(3-chloro-5-fluoro-4-hydroxyphenyl)-4-((4-((dimethylamino)methyl)phenyl)amino)quinolin-3-yl)butan-1-one] | 0.11 | 0.94 | 0.15 | 0.016 | 0.098 | – | –
10 | CN1CCN(C[C@H]2CC[C@H](Nc3c(C(=O)C4CC4)cnc4ccc(-c5cc(Cl)c(O)c(Cl)c5)cc34)CC2)CC1 [Example 618] | 0.23 | 2.3 | 0.21 | – | 0.12 | – | –
11 | COC1CCN(C2CCC(Nc3c(C(=O)C4CC4)cnc4ccc(-c5cc(F)c(O)c(Cl)c5)cc34)CC2)C1 (centres unmarked) [Example 686, (6-(3-chloro-5-fluoro-4-hydroxyphenyl)-4-(4-(3-methoxypyrrolidin-1-yl)cyclohexylamino)quinolin-3-yl)(cyclopropyl)methanone] | 0.19 | – | 0.17 | 0.0035 | – | 0.16 | 1.1
12 | COc1cc(-c2ccc3ncc(C(C)=O)c(N[C@H]4CC[C@H](CCN(C)C)CC4)c3c2)cc(Cl)c1O [Example 738] | 0.51 | – | 0.34 | 0.0026 | – | 2.1 | 7.8

Reference: patent US9120749B2, “Quinoline derivatives and MELK inhibitors containing the same” (ONCOTHERAPY SCIENCE, INC., priority 2010, dated 2015)
